# Structures can show the parent of a compound that is named as a salt.
# Assay: RP, Waters ACQUITY UPLC HSS T3, 150 × 2.1 mm, 1.8 µm, 45 °C, 0.6 mL/min, estimated dead time 0.55 min; A: water + 0.1% formic acid, pH 3; B: acetonitrile + 0.1% formic acid, pH 3; gradient (min/%B) 0/1 0.1/1 10/55 10.15/65 10.30/75 10.45/85 10.60/95 10.70/100 11/100 11.55/100 11.65/1 11.70/1 11.80/1 11.90/1 12/1 12.10/1 12.15/1 12.65/1
# Settings: stereoisomer not certain
row,LC retention time,Structure (SMILES)
1,2.7 min,O=C1NS(=O)(=O)c2ccccc21 [Saccharin]
2,5.48 min,O=C(O)c1ccccc1O [Salicylic acid]
3,4.39 min,O=C(O)CNC(=O)c1ccccc1O [Salicyluric acid]
4,4.46 min,O=C(O)CCCCCCC(=O)O [Suberic acid]
5,1.37 min,O=C(O)CCC(=O)O [Succinic acid]
6,2.31 min,O=C(O)CC(Nc1ncnc2c1ncn2C1OC(CO)C(O)C1O)C(=O)O (stereo not drawn) [Succinyladenosine]
7,1.65 min,Nc1c(C(=O)NC(CC(=O)O)C(=O)O)ncn1C1OC(CO)C(O)C1O (stereo not drawn) [Succinylaminoimidazole carboxamide riboside]
8,0.68 min,OCC1OC(OC2(CO)OC(CO)C(O)C2O)C(O)C(O)C1O (stereo not drawn) [Sucrose]
9,2.1 min,O=C(O)c1ccc(CO)o1 [Sumiki's acid]
10,8.93 min,CC(CCC(=O)NCCS(=O)(=O)O)C1CCC2C3CCC4CC(OS(=O)(=O)O)CCC4(C)C3CCC12C (stereo not drawn) [Taurolithocholic acid 3-sulfate]
11,2.76 min,Cn1c(=O)c2[nH]cnc2n(C)c1=O [Theophylline]
12,7.37 min,Cc1ccc(C(C)C)c(OS(=O)(=O)O)c1 [Thymol Sulfate]
13,2.92 min,CC=C(C)C(=O)NCC(=O)O [Tiglylglycine]
14,1.38 min,NC(Cc1ccc(O)cc1)C(=O)O (stereo not drawn) [Tyrosine]
15,1.12 min,O=c1[nH]c(=O)c2[nH]c(=O)[nH]c2[nH]1 [Uric acid]
16,1.38 min,O=c1ccn(C2OC(CO)C(O)C2O)c(=O)[nH]1 (stereo not drawn) [Uridine]
17,1.97 min,COc1cc(C(O)C(=O)O)ccc1O (stereo not drawn) [Vanillylmandelic acid]
18,1.31 min,O=c1[nH]c(=O)c2[nH]cnc2[nH]1 [Xanthine]
19,1.83 min,O=c1[nH]c(=O)c2ncn(C3OC(CO)C(O)C3O)c2[nH]1 (stereo not drawn) [Xanthosine]
20,4.88 min,O=C(O)/C=C/c1cccc(O)c1 [m-Coumaric acid]
21,4.3 min,Cc1ccc(OC2OC(C(=O)O)C(O)C(O)C2O)cc1 (stereo not drawn) [p-Cresol glucuronide]
22,4.2 min,Cc1ccc(OS(=O)(=O)O)cc1 [p-Cresol sulfate]
23,1.57 min,O=C(O)C(O)c1ccc(O)cc1 (stereo not drawn) [p-Hydroxymandelic acid]

# — the RepoRT retention time repository
